Values of other authors in patent publication US20220226302A1, “ENHANCEMENT OF CAMP SIGNALING AS A COMBINATION DRUG STRATEGY FOR THE TREATMENT OF DEPRESSION AND RELATED CONDITIONS” (Altos Neuroscience, Inc., priority 2021, published 2022).

Assays:
[1] = system: β3 adrenergic receptor
[2] = system: depression; conditions: two acute treatment clinical trials, humans
[3] = in vivo
[4] = system: depression; conditions: patients with depression, small clinical trials
[5] = system: PDE4
[6] = system: PDE4; conditions: in vivo

For CCOC(=O)COc1ccc2c(c1)C[C@@H](NC[C@H](O)c1cccc(Cl)c1)CC2 [amibegron], the “antidepressant-like effects in animals” value [1] is given as “promising antidepressant-like effects in animals”, the “efficacy in clinical trials for depression” value [2] is given as “failed to show efficacy in two acute treatment clinical trials” and the brain penetration [3] is given as “brain penetrant”.

In the case of COc1ccc(C2CNC(=O)C2)cc1OC1CCCC1 (centres unmarked) [rolipram], the “improvement in depression versus TCA medications” value [4] is listed as “In none of these studies, however, did rolipram produce a greater improvement in depression than the TCA medications” and the “phenotype of treated mice” value [5] is listed as “antidepressant and pro-cognitive phenotypes”.

In the case of O=C(Nc1c(Cl)cncc1Cl)c1ccc(OC(F)F)c(OCC2CC2)c1 [Roflumilast, roflumilast], the antidepressant effect [6] is listed as “no evidence of an antidepressant effect”, the pro-cognitive effect [6] is listed as “pro-cognitive effects” and the brain penetration [3] is listed as “can also reach the brain”.
